Results: ChEMBL document CHEMBL1201862, “PubChem BioAssay data set” (2004)
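Compound exposure: 48 hours, 5 concentrations, 96-well plates. The concentration for 50% growth inhibition is given as GI50.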 Activity calls are given as the source filed them. No stated cut-off is given here; in the data, active = GI50 up to about 1.1 µM and inactive = higher.

Key:
Experiment in all cases: growth of human tumour cells (NCI), 48 h
SF-295 = system: SF-295
NCI-H23 = system: NCI-H23
OVCAR-5 = system: OVCAR-5
NCI-H460 = system: NCI-H460
SF-268 = system: SF-268
SW-620 = system: SW-620
SN12C = system: SN12C
HOP-62 = system: HOP-62
HOP-92 = system: HOP-92
NCI-H522 = system: NCI-H522
XF498 = system: XF498
A549 = system: A549
SF-539 = system: SF-539
K562 = system: K562
SK-MEL-5 = system: SK-MEL-5
RXF 393 = system: RXF 393
Malme-3M = system: Malme-3M
HCT-116 = system: HCT-116
LOX IMVI = system: LOX IMVI
OVCAR-8 = system: OVCAR-8
NCI/ADR-RES = system: NCI/ADR-RES
IGROV-1 = system: IGROV-1
COLO 205 = system: COLO 205
KM12 = system: KM12
RPMI-8226 = system: RPMI-8226
SK-OV-3 = system: SK-OV-3
OVCAR-3 = system: OVCAR-3
UACC-62 = system: UACC-62
HCT-15 = system: HCT-15
SK-MEL-28 = system: SK-MEL-28
EKVX = system: EKVX
SK-MEL-2 = system: SK-MEL-2
DMS-114 = system: DMS-114
CCRF-CEM = system: CCRF-CEM
UO-31 = system: UO-31
HT-29 = system: HT-29
SNB-75 = system: SNB-75
UACC-257 = system: UACC-257
DLD-1 = system: DLD-1
CAKI-1 = system: CAKI-1
U-251 = system: U-251
MOLT-4 = system: MOLT-4
HCC 2998 = system: HCC 2998
HL-60 = system: HL-60
NCI-H226 = system: NCI-H226
KM-20L2 = system: KM-20L2
A498 = system: A498
M19-MEL = system: M19-MEL
SNB-78 = system: SNB-78
OVCAR-4 = system: OVCAR-4
HOP-18 = system: HOP-18
MCF7 = system: MCF7
SNB-19 = system: SNB-19
DMS-273 = system: DMS-273
ACHN = system: ACHN
M14 = system: M14
TK-10 = system: TK-10
786-0 = system: 786-0
LXFL 529 = system: LXFL 529
SR = system: SR

Question: For `CCOC(=O)/C=C/c1c[nH]c(C(=O)OCC)c1`, which GI50 (SF-295) is on record?
Answer: > 100 µM (inactive)

Question: And the GI50 (NCI-H23)?
Answer: > 100 µM (inactive)

Question: And the GI50 (OVCAR-5)?
Answer: > 100 µM (inactive)

Question: And the GI50 (NCI-H460)?
Answer: > 100 µM (inactive)

Question: And the GI50 (SF-268)?
Answer: > 100 µM (inactive)

Question: What about the GI50 (SW-620) of the same molecule?
Answer: > 100 µM (inactive)

Question: And the GI50 (SN12C)?
Answer: > 100 µM (inactive)

Question: What about the GI50 (HOP-62) of the same molecule?
Answer: > 100 µM (inactive)

Question: And the GI50 (HOP-92)?
Answer: > 100 µM (inactive)

Question: And the GI50 (NCI-H522)?
Answer: > 90.8 µM (inactive)

Question: What about the GI50 (XF498) of the same molecule?
Answer: > 95.1 µM (inactive)

Question: What about the GI50 (A549) of the same molecule?
Answer: > 100 µM (inactive)

Question: What about the GI50 (SF-539) of the same molecule?
Answer: > 100 µM (inactive)

Question: And the GI50 (K562)?
Answer: 51.5 µM (inactive)

Question: And the GI50 (SK-MEL-5)?
Answer: > 100 µM (inactive)

Question: And the GI50 (RXF 393)?
Answer: > 100 µM (inactive)

Question: And the GI50 (Malme-3M)?
Answer: > 100 µM (inactive)

Question: What about the GI50 (HCT-116) of the same molecule?
Answer: > 100 µM (inactive)

Question: What about the GI50 (LOX IMVI) of the same molecule?
Answer: > 100 µM (inactive)

Question: What about the GI50 (OVCAR-8) of the same molecule?
Answer: > 100 µM (inactive)

Question: And the GI50 (NCI/ADR-RES)?
Answer: > 100 µM (inactive)

Question: What about the GI50 (IGROV-1) of the same molecule?
Answer: > 100 µM (inactive)

Question: What about the GI50 (COLO 205) of the same molecule?
Answer: > 100 µM (inactive)

Question: And the GI50 (KM12)?
Answer: > 100 µM (inactive)

Question: What about the GI50 (RPMI-8226) of the same molecule?
Answer: > 100 µM (inactive)

Question: And the GI50 (SK-OV-3)?
Answer: > 100 µM (inactive)

Question: And the GI50 (OVCAR-3)?
Answer: > 100 µM (inactive)

Question: And the GI50 (UACC-62)?
Answer: > 69.3 µM (inactive)

Question: What about the GI50 (HCT-15) of the same molecule?
Answer: > 100 µM

Question: What about the GI50 (SK-MEL-28) of the same molecule?
Answer: > 100 µM (inactive)

Question: And the GI50 (EKVX)?
Answer: > 85.7 µM (inactive)

Question: And the GI50 (SK-MEL-2)?
Answer: > 100 µM (inactive)

Question: What about the GI50 (DMS-114) of the same molecule?
Answer: > 100 µM (inactive)

Question: What about the GI50 (CCRF-CEM) of the same molecule?
Answer: > 100 µM (inactive)

Question: What about the GI50 (UO-31) of the same molecule?
Answer: > 100 µM (inactive)

Question: What about the GI50 (HT-29) of the same molecule?
Answer: > 100 µM (inactive)

Question: And the GI50 (SNB-75)?
Answer: > 66.1 µM (inactive)

Question: What about the GI50 (UACC-257) of the same molecule?
Answer: > 100 µM (inactive)

Question: And the GI50 (DLD-1)?
Answer: > 100 µM (inactive)

Question: What about the GI50 (CAKI-1) of the same molecule?
Answer: > 100 µM (inactive)

Question: What about the GI50 (U-251) of the same molecule?
Answer: > 100 µM (inactive)

Question: And the GI50 (MOLT-4)?
Answer: > 100 µM (inactive)

Question: What about the GI50 (HCC 2998) of the same molecule?
Answer: > 100 µM (inactive)

Question: And the GI50 (HL-60)?
Answer: > 100 µM (inactive)

Question: What about the GI50 (NCI-H226) of the same molecule?
Answer: > 100 µM (inactive)

Question: And the GI50 (KM-20L2)?
Answer: > 100 µM (inactive)

Question: What about the GI50 (A498) of the same molecule?
Answer: > 100 µM (inactive)

Question: What about the GI50 (M19-MEL) of the same molecule?
Answer: > 100 µM (inactive)

Question: And the GI50 (SNB-78)?
Answer: > 86.1 µM (inactive)

Question: What about the GI50 (OVCAR-4) of the same molecule?
Answer: > 100 µM (inactive)

Question: And the GI50 (HOP-18)?
Answer: > 100 µM (inactive)

Question: And the GI50 (MCF7)?
Answer: > 100 µM (inactive)

Question: And the GI50 (SNB-19)?
Answer: > 100 µM (inactive)

Question: And the GI50 (DMS-273)?
Answer: > 100 µM (inactive)

Question: `Cc1ccc(NC(=O)/C(=N/NC(=O)CC#N)C2C(=O)N(c3ccccc3)N=C2N)cc1C` (configuration not stated) was tested. Which GI50 (SF-295) did it give?
Answer: > 100 µM (inactive)

Question: What about the GI50 (NCI-H23) of the same molecule?
Answer: > 100 µM (inactive)

Question: And the GI50 (OVCAR-5)?
Answer: > 100 µM (inactive)

Question: What about the GI50 (ACHN) of the same molecule?
Answer: > 100 µM (inactive)

Question: And the GI50 (NCI-H460)?
Answer: > 100 µM (inactive)

Question: And the GI50 (SF-268)?
Answer: > 100 µM (inactive)

Question: What about the GI50 (SW-620) of the same molecule?
Answer: > 100 µM (inactive)

Question: And the GI50 (SN12C)?
Answer: > 100 µM (inactive)

Question: And the GI50 (HOP-62)?
Answer: > 100 µM (inactive)

Question: What about the GI50 (HOP-92) of the same molecule?
Answer: > 100 µM (inactive)

Question: What about the GI50 (NCI-H522) of the same molecule?
Answer: > 100 µM (inactive)

Question: And the GI50 (XF498)?
Answer: > 100 µM (inactive)

Question: And the GI50 (A549)?
Answer: > 100 µM (inactive)

Question: And the GI50 (SF-539)?
Answer: > 100 µM (inactive)

Question: And the GI50 (K562)?
Answer: > 100 µM (inactive)

Question: What about the GI50 (SK-MEL-5) of the same molecule?
Answer: > 100 µM (inactive)

Question: What about the GI50 (RXF 393) of the same molecule?
Answer: > 100 µM (inactive)

Question: And the GI50 (Malme-3M)?
Answer: > 100 µM (inactive)

Question: What about the GI50 (HCT-116) of the same molecule?
Answer: > 100 µM (inactive)

Question: What about the GI50 (LOX IMVI) of the same molecule?
Answer: > 100 µM (inactive)

Question: What about the GI50 (OVCAR-8) of the same molecule?
Answer: > 100 µM (inactive)

Question: And the GI50 (M14)?
Answer: > 100 µM (inactive)

Question: And the GI50 (IGROV-1)?
Answer: > 100 µM (inactive)

Question: What about the GI50 (COLO 205) of the same molecule?
Answer: > 100 µM (inactive)

Question: What about the GI50 (KM12) of the same molecule?
Answer: > 100 µM (inactive)

Question: And the GI50 (RPMI-8226)?
Answer: > 100 µM (inactive)

Question: And the GI50 (SK-OV-3)?
Answer: > 100 µM (inactive)

Question: What about the GI50 (TK-10) of the same molecule?
Answer: > 100 µM (inactive)

Question: What about the GI50 (OVCAR-3) of the same molecule?
Answer: > 100 µM (inactive)

Question: And the GI50 (UACC-62)?
Answer: > 100 µM (inactive)

Question: What about the GI50 (HCT-15) of the same molecule?
Answer: > 100 µM

Question: What about the GI50 (SK-MEL-28) of the same molecule?
Answer: > 100 µM (inactive)

Question: What about the GI50 (EKVX) of the same molecule?
Answer: > 100 µM (inactive)

Question: What about the GI50 (SK-MEL-2) of the same molecule?
Answer: > 100 µM (inactive)

Question: What about the GI50 (DMS-114) of the same molecule?
Answer: > 100 µM (inactive)

Question: And the GI50 (CCRF-CEM)?
Answer: > 100 µM (inactive)

Question: What about the GI50 (UO-31) of the same molecule?
Answer: > 100 µM (inactive)

Question: What about the GI50 (HT-29) of the same molecule?
Answer: > 100 µM (inactive)

Question: And the GI50 (786-0)?
Answer: > 100 µM (inactive)

Question: And the GI50 (LXFL 529)?
Answer: > 100 µM (inactive)

Question: And the GI50 (SNB-75)?
Answer: > 100 µM (inactive)

Question: What about the GI50 (UACC-257) of the same molecule?
Answer: > 100 µM (inactive)

Question: What about the GI50 (DLD-1) of the same molecule?
Answer: > 100 µM (inactive)

Question: And the GI50 (CAKI-1)?
Answer: > 100 µM (inactive)

Question: And the GI50 (U-251)?
Answer: > 100 µM (inactive)

Question: What about the GI50 (MOLT-4) of the same molecule?
Answer: > 100 µM (inactive)

Question: What about the GI50 (HCC 2998) of the same molecule?
Answer: > 100 µM (inactive)

Question: What about the GI50 (HL-60) of the same molecule?
Answer: > 100 µM (inactive)

Question: And the GI50 (NCI-H226)?
Answer: > 100 µM (inactive)

Question: And the GI50 (KM-20L2)?
Answer: > 100 µM (inactive)

Question: What about the GI50 (SR) of the same molecule?
Answer: > 100 µM (inactive)

Question: What about the GI50 (A498) of the same molecule?
Answer: > 100 µM (inactive)

Question: What about the GI50 (M19-MEL) of the same molecule?
Answer: > 100 µM (inactive)

Question: And the GI50 (SNB-78)?
Answer: > 100 µM (inactive)

Question: What about the GI50 (OVCAR-4) of the same molecule?
Answer: > 100 µM (inactive)

Question: And the GI50 (HOP-18)?
Answer: > 100 µM (inactive)

Question: And the GI50 (SNB-19)?
Answer: > 100 µM (inactive)

Question: What about the GI50 (DMS-273) of the same molecule?
Answer: > 100 µM (inactive)
